Where two headings read alike, the source gives them in different places.
Molecular target: T1, ALK (baculovirus expressed human ALK kinase domain F1098-K1410) (Homo sapiens, UniProt Q9UM73)
T1 construct: human ALK kinase domain F1098-K1410; made in house
Assay: biochemical
Method in brief: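 Baculovirus-expressed human ALK kinase domain (F1098-K1410) was run in a luciferase-coupled chemiluminescent format, with ATP near its KM. After 2 h at ambient temperature, remaining ATP was read by luciferase-luciferin luminescence. IC50 came from 10-point dose-response curves fitted to a four-parameter equation with Hill slope.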

[1] = 1 μM ATP, 4 μM poly-AEKY, 12 nM ALK, 2 hours at ambient temperature, read-out: ALK IC50

T1 sequence (Q9UM73 1098-1410): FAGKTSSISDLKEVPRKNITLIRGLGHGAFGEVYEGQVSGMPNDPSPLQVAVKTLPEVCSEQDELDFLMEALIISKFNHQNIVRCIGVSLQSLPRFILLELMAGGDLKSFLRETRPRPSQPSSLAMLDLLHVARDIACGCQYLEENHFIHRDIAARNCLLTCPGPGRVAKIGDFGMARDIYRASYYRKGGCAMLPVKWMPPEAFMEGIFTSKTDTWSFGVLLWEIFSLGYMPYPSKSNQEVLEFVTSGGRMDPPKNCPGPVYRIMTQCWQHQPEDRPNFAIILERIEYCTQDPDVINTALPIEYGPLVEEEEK

Compound: C[C@@H](CNC(=O)c1csc(CNC(=O)COc2ccc(OC(F)(F)F)cc2)n1)c1ccccc1 [Entry 6, N-[(2R)-2-phenylpropyl]-2-({[({4-[(trifluoromethyl)oxy]phenyl}oxy)acetyl]amino}methyl)-1,3-thiazole-4-carboxamide]
- IC50 [1]: < 50 nM

Compound: O=C(COc1cccc(Cl)c1)NCc1nc(C(=O)NCCc2cccc(Cl)c2)cs1 [Entry 161, N-[2-(3-chlorophenyl)ethyl]-2-[({[(3-chlorophenyl)oxy]acetyl}amino)methyl]-1,3-thiazole-4-carboxamide]
- IC50 [1]: 50 to 500 nM

Compound: CC1CC(C)CN(C(=O)c2csc(CNC(=O)COc3ccc(OC(F)(F)F)cc3)n2)C1 (centres unmarked) [Entry 282, N-({4-[(3,5-dimethylpiperidin-1-yl)carbonyl]-1,3-thiazol-2-yl}methyl)-2-({4-[(trifluoromethyl)oxy]phenyl}oxy)acetamide]
- IC50 [1]: 500 to 2000 nM

Compound: O=C(COc1ccc(OC(F)(F)F)cc1)NCc1nc(C(=O)NC2CCN(Cc3ccccc3)CC2)cs1 [Entry 84, N-[1-(phenylmethyl)piperidin-4-yl]-2-({[({4-[(trifluoromethyl)oxy]phenyl}oxy)acetyl]amino}methyl)-1,3-thiazole-4-carboxamide]
- IC50 [1]: 50 to 500 nM

Compound: O=C(COc1ccc(OC(F)(F)F)cc1)NCc1nc(C(=O)N2CCc3c([nH]c4ccccc34)C2)cs1 [Entry 96, N-{[4-(1,3,4,9-tetrahydro-2H-beta-carbolin-2-ylcarbonyl)-1,3-thiazol-2-yl]methyl}-2-({4-[(trifluoromethyl)oxy]phenyl}oxy)acetamide]
- IC50 [1]: 50 to 500 nM

Compound: CC(NC(=O)c1csc(CNC(=O)COc2ccc(OC(F)(F)F)cc2)n1)c1ccc(F)cc1 (centres unmarked) [Entry 86, N-[1-(4-fluorophenyl)ethyl]-2-({[({4-[(trifluoromethyl)oxy]phenyl}oxy)acetyl]amino}methyl)-1,3-thiazole-4-carboxamide]
- IC50 [1]: 50 to 500 nM

Compound: CCCCCCN(C)C(=O)c1csc(CNC(=O)COc2ccc(OC(F)(F)F)cc2)n1 [Entry 193, N-hexyl-N-methyl-2-({[({4-[(trifluoromethyl)oxy]phenyl}oxy)acetyl]amino}methyl)-1,3-thiazole-4-carboxamide]
- IC50 [1]: 50 to 500 nM

Compound: Cc1ccc(CCNC(=O)c2csc(CNC(=O)COc3ccc(OC(F)(F)F)cc3)n2)c(C)c1 [Entry 49, N-[2-(2,4-dimethylphenyl)ethyl]-2-({[({4-[(trifluoromethyl)oxy]phenyl}oxy)acetyl]amino}methyl)-1,3-thiazole-4-carboxamide]
- IC50 [1]: 50 to 500 nM

Compound: O=C(COc1ccc(OC(F)(F)F)cc1)NCc1nc(C(=O)NC23C[C@H]4C[C@@H](C2)C[C@@H](C3)C4)cs1 [Entry 23, N-tricyclo[3.3.1.1~3,7~]dec-1-yl-2-({[({4-[(trifluoromethyl)oxy]phenyl}oxy)acetyl]amino}methyl)-1,3-thiazole-4-carboxamide]
- IC50 [1]: < 50 nM

Compound: O=C(COc1ccc(OC(F)(F)F)cc1)NCc1nc(C(=O)NC2CCCC2)cs1 [Entry 228, N-cyclopentyl-2-({[({4-[(trifluoromethyl)oxy]phenyl}oxy)acetyl]amino}methyl)-1,3-thiazole-4-carboxamide]
- IC50 [1]: 500 to 2000 nM

Compound: CC(C)c1ccc(CC(=O)NCc2nc(C(=O)NCCc3ccccc3F)cs2)cc1 [Entry 114, N-[2-(2-fluorophenyl)ethyl]-2-[({[4-(1-methylethyl)phenyl]acetyl}amino)methyl]-1,3-thiazole-4-carboxamide]
- IC50 [1]: 50 to 500 nM

Compound: O=C(COc1ccc(OC(F)(F)F)cc1)NCc1nc(C(=O)NCCc2ccccn2)cs1 [Entry 77, N-(2-pyridin-2-ylethyl)-2-({[({4-[(trifluoromethyl)oxy]phenyl}oxy)acetyl]amino}methyl)-1,3-thiazole-4-carboxamide]
- IC50 [1]: 50 to 500 nM

Compound: CCCCOc1ccc(NC(=O)NCc2nc(C(=O)NCc3cccc(OC)c3OC)cs2)cc1 [Entry 248, N-{[2,3-bis(methyloxy)phenyl]methyl}-2-{[({[4-(butyloxy)phenyl]amino}carbonyl)amino]methyl}-1,3-thiazole-4-carboxamide]
- IC50 [1]: 500 to 2000 nM

Compound: O=C(COc1ccc(OC(F)(F)F)cc1)NCc1nc(C(=O)NC2CCCc3ccccc32)co1 (centres unmarked) [Entry 293, N-(1,2,3,4-tetrahydronaphthalen-1-yl)-2-({[({4-[(trifluoromethyl)oxy]phenyl}oxy)acetyl]amino}methyl)-1,3-oxazole-4-carboxamide]
- IC50 [1]: 500 to 2000 nM

Compound: O=C(COc1ccc(OC(F)(F)F)cc1)NCc1nc(C(=O)NCCc2ccc(F)cc2)co1 [Entry 201, N-[2-(4-fluorophenyl)ethyl]-2-({[({4-[(trifluoromethyl)oxy]phenyl}oxy)acetyl]amino}methyl)-1,3-oxazole-4-carboxamide]
- IC50 [1]: 50 to 500 nM

Compound: Cc1ccc(CCNC(=O)c2coc(CNC(=O)COc3ccc(OC(F)(F)F)cc3)n2)cc1C [Entry 211, N-[2-(3,4-dimethylphenyl)ethyl]-2-({[({4-[(trifluoromethyl)oxy]phenyl}oxy)acetyl]amino}methyl)-1,3-oxazole-4-carboxamide]
- IC50 [1]: 50 to 500 nM

Compound: Cc1ccc(CNC(=O)c2csc(CNC(=O)COc3ccc(OC(F)(F)F)cc3)n2)cc1 [Entry 170, N-[(4-methylphenyl)methyl]-2-({[({4-[(trifluoromethyl)oxy]phenyl}oxy)acetyl]amino}methyl)-1,3-thiazole-4-carboxamide]
- IC50 [1]: 50 to 500 nM

Compound: Cc1ccccc1CNC(=O)c1csc(CNC(=O)COc2ccc(OC(F)(F)F)cc2)n1 [Entry 98, N-[(2-methylphenyl)methyl]-2-({[({4-[(trifluoromethyl)oxy]phenyl}oxy)acetyl]amino}methyl)-1,3-thiazole-4-carboxamide]
- IC50 [1]: 50 to 500 nM

Compound: CCc1ccc(OCC(=O)NCc2nc(C(=O)NCCc3cccc(Cl)c3)cs2)cc1 [Entry 111, N-[2-(3-chlorophenyl)ethyl]-2-[({[(4-ethylphenyl)oxy]acetyl}amino)methyl]-1,3-thiazole-4-carboxamide]
- IC50 [1]: 50 to 500 nM

Compound: NS(=O)(=O)c1ccc(CCNC(=O)c2coc(CNC(=O)COc3ccc(OC(F)(F)F)cc3)n2)cc1 [Entry 92, N-{2-[4-(aminosulfonyl)phenyl]ethyl}-2-({[({4-[(trifluoromethyl)oxy]phenyl}oxy)acetyl]amino}methyl)-1,3-oxazole-4-carboxamide]
- IC50 [1]: 50 to 500 nM

Compound: COc1ccccc1CNC(=O)c1csc(CNC(=O)COc2ccc(I)cc2)n1 [Entry 82, 2-[({[(4-iodophenyl)oxy]acetyl}amino)methyl]-N-{[2-(methyloxy)phenyl]methyl}-1,3-thiazole-4-carboxamide]
- IC50 [1]: 50 to 500 nM

Compound: CCCCCC(C)NC(=O)c1csc(CNC(=O)COc2ccc(OC(F)(F)F)cc2)n1 (centres unmarked) [Entry 179, N-(1-methylhexyl)-2-({[({4-[(trifluoromethyl)oxy]phenyl}oxy)acetyl]amino}methyl)-1,3-thiazole-4-carboxamide]
- IC50 [1]: 50 to 500 nM

Compound: O=C(COc1ccc(OC(F)(F)F)cc1)NCc1nc(C(=O)NCCOc2ccccc2)cs1 [Entry 122, N-[2-(phenyloxy)ethyl]-2-({[({4-[(trifluoromethyl)oxy]phenyl}oxy)acetyl]amino}methyl)-1,3-thiazole-4-carboxamide]
- IC50: 50 to 500 nM

Compound: C#CC(CC)(CC)NC(=O)c1csc(CNC(=O)COc2ccc(OC(F)(F)F)cc2)n1 [Entry 147, N-(1,1-diethylprop-2-yn-1-yl)-2-({[({4-[(trifluoromethyl)oxy]phenyl}oxy)acetyl]amino}methyl)-1,3-thiazole-4-carboxamide]
- IC50 [1]: 50 to 500 nM

Compound: COc1ccccc1CNC(=O)c1csc(CNC(=O)Nc2ccc(C(C)C)cc2)n1 [Entry 29, 2-{[({[4-(1-methylethyl)phenyl]amino}carbonyl)amino]methyl}-N-{[2-(methyloxy)phenyl]methyl}-1,3-thiazole-4-carboxamide]
- IC50 [1]: 50 to 500 nM

Compound: O=C(COc1ccc(OC(F)(F)F)cc1)NCc1nc(C(=O)NCc2cccc(F)c2)cs1 [Entry 127, N-[(3-fluorophenyl)methyl]-2-({[({4-[(trifluoromethyl)oxy]phenyl}oxy)acetyl]amino}methyl)-1,3-thiazole-4-carboxamide]
- IC50 [1]: 50 to 500 nM

Compound: COc1cccc(CNC(=O)c2coc(CNC(=O)COc3ccc(OC(F)(F)F)cc3)n2)c1OC [Entry 223, N-{[2,3-bis(methyloxy)phenyl]methyl}-2-({[({4-[(trifluoromethyl)oxy]phenyl}oxy)acetyl]amino}methyl)-1,3-oxazole-4-carboxamide]
- IC50 [1]: 500 to 2000 nM

Compound: CSc1ccccc1CNC(=O)c1csc(CNC(=O)COc2ccc(OC(F)(F)F)cc2)n1 [Entry 41, N-{[2-(methylthio)phenyl]methyl}-2-({[({4-[(trifluoromethyl)oxy]phenyl}oxy)acetyl]amino}methyl)-1,3-thiazole-4-carboxamide]
- IC50 [1]: 50 to 500 nM

Compound: O=C(COc1ccc(OC(F)(F)F)cc1)NCc1nc(C(=O)NCCc2ccccc2Oc2ccccc2)cs1 [Entry 213, N-{2-[2-(phenyloxy)phenyl]ethyl}-2-({[({4-[(trifluoromethyl)oxy]phenyl}oxy)acetyl]amino}methyl)-1,3-thiazole-4-carboxamide]
- IC50 [1]: 50 to 500 nM

Compound: O=C(COc1ccc(OC(F)(F)F)cc1)NCc1nc(C(=O)NCc2cc(F)cc(F)c2)cs1 [Entry 126, N-[(3,5-difluorophenyl)methyl]-2-({[({4-[(trifluoromethyl)oxy]phenyl}oxy)acetyl]amino}methyl)-1,3-thiazole-4-carboxamide]
- IC50 [1]: 50 to 500 nM

Compound: C[C@@H](NC(=O)c1csc(CNC(=O)COc2ccc(OC(F)(F)F)cc2)n1)C(C)(C)C [Entry 233, 2-({[({4-[(trifluoromethyl)oxy]phenyl}oxy)acetyl]amino}methyl)-N-[(1R)-1,2,2-trimethylpropyl]-1,3-thiazole-4-carboxamide]
- IC50 [1]: 500 to 2000 nM

Compound: CSc1ccc(NC(=O)NCc2nc(C(=O)NCCc3cccc(Cl)c3)cs2)cc1 [Entry 173, N-[2-(3-chlorophenyl)ethyl]-2-{[({[4-(methylthio)phenyl]amino}carbonyl)amino]methyl}-1,3-thiazole-4-carboxamide]
- IC50 [1]: 50 to 500 nM

From patent US7973061B2, “Anaplastic lymphoma kinase modulators and methods of use” (Exelixis, Inc., priority 2004, dated 2011)
